In patent US20160280699A1, “SUBSTITUTED PHENYLALANINE DERIVATIVES” (BAYER PHARMA AKTIENGESELLSCHAFT, priority 2013, published 2016):
Counter-ions that a name gives are not always drawn.

Tests used:
human factor XIa = biological target: T1, human factor XIa (Homo sapiens, UniProt P03951); experiment: Measurement of FXIa inhibition (fluorogenic peptide substrate Boc-Glu(OBzl)-Ala-Arg-AMC); format: biochemical; settings: factor XIa from Kordia, 15 min preincubation, 30 min at 22° C., fluorescence
T1 construct: purchased Kordia
T1 sequence (P03951 388-625 limits assumed): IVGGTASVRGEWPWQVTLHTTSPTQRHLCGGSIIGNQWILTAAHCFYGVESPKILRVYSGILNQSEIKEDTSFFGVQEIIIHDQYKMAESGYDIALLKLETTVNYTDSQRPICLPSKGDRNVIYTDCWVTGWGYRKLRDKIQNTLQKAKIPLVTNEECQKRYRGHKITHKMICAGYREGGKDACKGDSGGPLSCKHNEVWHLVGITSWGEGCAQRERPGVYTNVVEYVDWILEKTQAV
T1 sequence (P03951 19-387 partner limits assumed): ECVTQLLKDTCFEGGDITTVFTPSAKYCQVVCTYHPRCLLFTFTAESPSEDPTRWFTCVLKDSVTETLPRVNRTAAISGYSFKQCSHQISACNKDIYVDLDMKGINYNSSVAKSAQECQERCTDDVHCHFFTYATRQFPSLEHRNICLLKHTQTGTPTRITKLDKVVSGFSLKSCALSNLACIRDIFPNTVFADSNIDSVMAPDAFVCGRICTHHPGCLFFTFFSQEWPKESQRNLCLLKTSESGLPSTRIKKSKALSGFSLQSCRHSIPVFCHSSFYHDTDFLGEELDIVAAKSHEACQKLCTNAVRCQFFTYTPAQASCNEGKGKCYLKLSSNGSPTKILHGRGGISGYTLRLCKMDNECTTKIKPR
Experimental: The factor XIa inhibition of the substances according to the invention is determined using a biochemical test system which utilizes the reaction of a peptidic factor XIa substrate to determine the enzymatic activity of human factor XIa. Here, factor XIa cleaves from the peptic factor XIa substrate the C-terminal aminomethylcoumarin (AMC), the fluorescence of which is measured. The determinations are carried out in microtitre plates.
Test substances are dissolved in dimethyl sulphoxide and serially diluted in dimethyl sulphoxide (3000 μM to 0.0078 μM; resulting final concentrations in the test: 50 μM to 0.00013 μM). In each case 1 μl of the diluted substance solutions is placed into the wells of white microtitre plates from Greiner (384 wells). Subsequently, the following are added successively: 20 μl of assay buffer (50 mmol/l Tris buffer pH 7.4; 100 mmol/l sodium chloride; 5 mmol/l calcium chloride; 0.1% bovine serum albumin) and 20 μl of factor XIa from Kordia (0.45 nM in assay buffer). After 15 min of incubation, the enzyme reaction is started by addition of 20 μl of the factor XIa substrate Boc-Glu(OBzl)-Ala-Arg-AMC dissolved in assay buffer (10 μM in assay buffer) from Bachem, the mixture is incubated at room temperature (22° C.) for 30 min and fluorescence is then measured (excitation: 360 nm, emission: 460 nm). The measured emissions of the test batches with test substance are compared to those of control batches without test substance (only dimethyl sulphoxide instead of test substance in dimethyl sulphoxide), and IC50 values are calculated from the concentration/activity relationships.

human and animal plasma = experiment: Determination of anticoagulatory activity: activated partial thromboplastin time (aPTT) in plasma; format: biochemical; settings: concentration of test substance which brings about a 1.5-fold extension of the aPTT, 37° C., C.K. Prest kit
Experimental: The anticoagulatory activity of the test substances is determined in vitro in human and animal plasma (for example mouse, rat, rabbit, pig and dog plasma). To this end, blood is drawn off in a mixing ratio of sodium citrate/blood of 1:9 using a 0.11 molar sodium citrate solution as receiver. Immediately after the blood has been drawn off, it is mixed thoroughly and centrifuged at about 4000 g for 15 minutes. The supernatant is pipetted off.
The activated partial thromboplastin time (aPTT) is determined in the presence of varying concentrations of test substance or the corresponding solvent using a commercial test kit (C.K. Prest from Diagnostica Stago). The test compounds are incubated with the plasma and the PTT reagent (cephalin, kaolin) at 37° C. for 3 minutes. Coagulation is then started by addition of a 25 mM aqueous calcium chloride solution, and the time when coagulation occurs is determined. The concentration of test substance which brings about a 1.5-fold extension of the aPTT is determined Activity data from this test are listed in Table B below: […]

Compound	IC50 (human factor XIa)	aPTT (human and animal plasma)
COc1ccc(-c2ccc(C[C@H](NC(=O)[C@H]3CC[C@H](CN)CC3)C(=O)Nc3ccc4cn[nH]c4c3)cc2)c(C)n1 [Example 28, N-alpha-{[trans-4-(Aminomethyl)cyclohexyl]carbonyl}-N-1H-indazol-6-yl-4-(6-methoxy-2-methylpyridin-3-yl)-L-phenylalaninamide hydrochloride]	7.8 nM	–
Cl.NC[C@H]1CC[C@H](C(=O)N[C@@H](Cc2ccc(-c3cnc(N4CCOCC4)nc3)cc2)C(=O)Nc2ccc(-c3nc(C(F)(F)C(F)(F)C(=O)O)n[nH]3)cc2)CC1 [Example 59, 3-(5-{4-[(N-{[trans-4-(Aminomethyl)cyclohexyl]carbonyl}-4-[2-(morpholin-4-yl)pyrimidin-5-yl]-L-phenylalanyl)amino]phenyl}-1H-1,2,4-triazol-3-yl)-2,2,3,3-tetrafluoropropanoic acid hydrochloride]	2.6 nM	0.08 µmol/L
NC[C@H]1CC[C@H](C(=O)N[C@@H](Cc2ccc(-c3ccc(C(F)(F)F)nc3)cc2)C(=O)Nc2ccc(-c3nn[nH]n3)cc2)CC1 [Example 18, N-alpha-{[trans-4-(Aminomethyl)cyclohexyl]carbonyl}-N-[4-(2H-tetrazol-5-yl)phenyl]-4-[6-(trifluoromethyl)pyridin-3-yl]-L-phenylalaninamide hydrochloride]	2.7 nM	0.33 µmol/L
NC[C@H]1CC[C@H](C(=O)N[C@@H](Cc2ccc(-c3ccc(N4CCOCC4)nc3)cc2)C(=O)Nc2ccc(-c3cc(=O)[nH][nH]3)cc2)CC1 [Example 34, N-alpha-{[trans-4-(Aminomethyl)cyclohexyl]carbonyl}-4-[6-(morpholin-4-yl)pyridin-3-yl]-N-[4-(5-oxo-2,5-dihydro-1H-pyrazol-3-yl)phenyl]-L-phenylalaninamide hydrochloride]	5.4 nM	0.14 µmol/L
COc1ccc(-c2ccc(C[C@H](NC(=O)[C@H]3CC[C@H](CN)CC3)C(=O)Nc3ccc(-c4nn[nH]n4)cc3)cc2)cn1 [Example 38, N-alpha-{[trans-4-(Aminomethyl)cyclohexyl]carbonyl}-4-(6-methoxypyridin-3-yl)-N-[4-(2H-tetrazol-5-yl)phenyl]-L-phenylalaninamide]	4.8 nM	–
COc1nc(N2CCN(C)CC2)ncc1-c1ccc(C[C@H](NC(=O)[C@H]2CC[C@H](CN)CC2)C(=O)Nc2ccc(-c3nn[nH]n3)cc2)cc1 [Example 31, N-alpha-{[trans-4-(Aminomethyl)cyclohexyl]carbonyl}-4-[4-methoxy-2-(4-methylpiperazin-1-yl)pyrimidin-5-yl]-N-[4-(2H-tetrazol-5-yl)phenyl]-L-phenylalaninamide hydrochloride]	15 nM	0.22 µmol/L
CN(C)c1ncc(-c2ccc(C[C@H](NC(=O)[C@H]3CC[C@H](CN)CC3)C(=O)Nc3ccc(-c4nn[nH]n4)cc3)cc2)cn1 [Example 25, N-alpha-{[trans-4-(Aminomethyl)cyclohexyl]carbonyl}-4-[2-(dimethylamino)pyrimidin-5-yl]-N-[4-(2H-tetrazol-5-yl)phenyl]-L-phenylalaninamide hydrochloride]	8 nM	0.29 µmol/L
NC[C@H]1CC[C@H](C(=O)N[C@@H](Cc2ccc(-c3ccc(N4CCOCC4)nc3)cc2)C(=O)Nc2ccc(-c3nn[nH]n3)cc2)CC1 [Example 7, N-alpha-{[trans-4-(Aminomethyl)cyclohexyl]carbonyl}-4-[6-(morpholin-4-yl)pyridin-3-yl]-N-[4-(2H-tetrazol-5-yl)phenyl]-L-phenylalaninamide hydrochloride]	2.2 nM	0.29 µmol/L
CCOc1ncccc1-c1ccc(C[C@H](NC(=O)[C@H]2CC[C@H](CN)CC2)C(=O)Nc2ccc(-c3nn[nH]n3)cc2)cc1 [Example 42, N-alpha-{[trans-4-(Aminomethyl)cyclohexyl]carbonyl}-4-(2-ethoxypyridin-3-yl)-N-[4-(2H-tetrazol-5-yl)phenyl]-L-phenylalaninamide hydrochloride]	3 nM	–
NC[C@H]1CC[C@H](C(=O)N[C@@H](Cc2ccc(-c3ccc(O)nc3)cc2)C(=O)Nc2ccc(-c3nn[nH]n3)cc2)CC1 [Example 17, N-alpha-{[trans-4-(Aminomethyl)cyclohexyl]carbonyl}-4-(6-hydroxypyridin-3-yl)-N-[4-(2H-tetrazol-5-yl)phenyl]-L-phenylalaninamide hydrochloride]	10 nM	–
NC[C@H]1CC[C@H](C(=O)N[C@@H](Cc2ccc(-c3ccnc(N4CCOCC4)c3)cc2)C(=O)Nc2ccc3c(=O)[nH][nH]c3c2)CC1 [Example 36, N-alpha-{[trans-4-(Aminomethyl)cyclohexyl]carbonyl}-4-[2-(morpholin-4-yl)pyridin-4-yl]-N-(3-oxo-2,3-dihydro-1H-indazol-6-yl)-L-phenylalaninamide hydrochloride]	7.2 nM	–
CN(C)CCCOc1ccc(-c2ccc(C[C@H](NC(=O)[C@H]3CC[C@H](CN)CC3)C(=O)Nc3ccc(-c4nn[nH]n4)cc3)cc2)cn1 [Example 6, N-alpha-{[trans-4-(Aminomethyl)cyclohexyl]carbonyl}-4-{6-[3-(dimethylamino)propoxy]pyridin-3-yl}-N-[4-(2H-tetrazol-5-yl)phenyl]-L-phenylalaninamide hydrochloride]	15 nM	–

Second part, led by results:

IC50 (human factor XIa)	Compound	aPTT (human and animal plasma)
7 nM	NC[C@H]1CC[C@H](C(=O)N[C@@H](Cc2ccc(-c3cccnc3)cc2)C(=O)Nc2ccc(-c3nn[nH]n3)cc2)CC1 [Example 5, N-alpha-{[trans-4-(Aminomethyl)cyclohexyl]carbonyl}-4-pyridin-3-yl-N-[4-(2H-tetrazol-5-yl)phenyl]phenylalaninamide]	0.35 µmol/L
3 nM	Cc1nc(N)ncc1-c1ccc(C[C@H](NC(=O)C2CCC(CN)CC2)C(=O)Nc2ccc(-c3nnn[nH]3)cc2)cc1 (stereo partly drawn) [Example 55, N-alpha-{[trans-4-(Aminomethyl)cyclohexyl]carbonyl}-4-(2-amino-4-methylpyrimidin-5-yl)-N-[4-(1H-tetrazol-5-yl)phenyl]-L-phenylalaninamide hydrochloride]	0.22 µmol/L
3.2 nM	NC[C@H]1CC[C@H](C(=O)N[C@@H](Cc2ccc(-c3cncc(N)c3)cc2)C(=O)Nc2ccc(-c3nnn[nH]3)cc2)CC1 [Example 49, N-alpha-{[trans-4-(Aminomethyl)cyclohexyl]carbonyl}-4-(5-aminopyridin-3-yl)-N-[4-(1H-tetrazol-5-yl)phenyl]-L-phenylalaninamide hydrochloride]	0.14 µmol/L
6.2 nM	NC[C@H]1CC[C@H](C(=O)N[C@@H](Cc2ccc(-c3cncc(Cl)c3)cc2)C(=O)Nc2ccc(-c3nn[nH]n3)cc2)CC1 [Example 10, N-alpha-{[trans-4-(Aminomethyl)cyclohexyl]carbonyl}-4-(5-chloropyridin-3-yl)-N-[4-(2H-tetrazol-5-yl)phenyl]-L-phenylalaninamide hydrochloride]	–
5.7 nM	NC[C@H]1CC[C@H](C(=O)N[C@@H](Cc2ccc(-c3cnc(N4CCOCC4)nc3)cc2)C(=O)Nc2ccc(-c3nnn[nH]3)cc2)CC1 [Example 1, N-alpha-{[trans-4-(Aminomethyl)cyclohexyl]carbonyl}-4-[2-(morpholin-4-yl)pyrimidin-5-yl]-N-[4-(1H-tetrazol-5-yl)phenyl]-L-phenylalaninamide hydrochloride]	–
